These results are taken from ChEMBL document CHEMBL1149816, “Class II-selective histone deacetylase inhibitors. Part 2: alignment-independent GRIND 3-D QSAR, homology and docking studies” (Eur J Med Chem, 2008).

For orientation: pIC50 means the negative decadic logarithm of the IC50, by convention in mol/L.

Test [1] can be described thus: Inhibition of maize histone deacetylase 1A. Further details: species or system Zea mays.
Test [2] concerns Zea mays. The experiment in a line: Selectivity for IC50 of maize histone deacetylase 1A over IC50 of maize histone deacetylase 1B.
Test [3] addresses Histone deacetylase HD1B (Zea mays, UniProt Q9ZTP8). The experiment in a line: Inhibition of maize histone deacetylase 1B.

Histone deacetylase HD1B, sequence (Q9ZTP8 whole entry): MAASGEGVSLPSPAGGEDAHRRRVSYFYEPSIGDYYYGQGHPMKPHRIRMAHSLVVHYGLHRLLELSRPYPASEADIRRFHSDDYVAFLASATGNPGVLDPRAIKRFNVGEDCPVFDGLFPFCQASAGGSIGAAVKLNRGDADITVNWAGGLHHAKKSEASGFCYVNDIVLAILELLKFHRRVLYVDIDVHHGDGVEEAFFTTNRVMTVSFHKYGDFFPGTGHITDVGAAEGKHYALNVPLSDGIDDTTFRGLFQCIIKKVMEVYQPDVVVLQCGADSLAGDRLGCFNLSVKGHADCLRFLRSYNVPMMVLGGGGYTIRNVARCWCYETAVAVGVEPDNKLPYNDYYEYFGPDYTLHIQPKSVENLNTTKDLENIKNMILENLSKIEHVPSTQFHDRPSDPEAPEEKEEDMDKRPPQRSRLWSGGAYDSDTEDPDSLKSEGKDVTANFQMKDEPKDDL

On to `Cn1cc(/C=C/C(=O)c2cccc(F)c2)cc1/C=C/C(=O)NO`, for which the IC50 was 220 nM in test [1] and 38800 nM in test [3] (read-out: IC50). For the same molecule, the Ratio IC50 in test [2] amounted to 176.
Consider `CC/C(=C\c1cc(/C=C/C(=O)NO)n(C)c1)C(=O)c1ccccc1`, for which the IC50 in test [1] turned out to be 220 nM; in test [3] (read-out: IC50), 4500 nM. Besides, the Ratio IC50 in test [2] came to 20.4.
Taken in the same sequence, the figures for `COc1cccc(C(=O)/C=C/c2cc(/C=C/C(=O)NO)n(C)c2)c1` were 390 nM, 600 nM and 1.5.
Regarding `Cn1cc(/C=C/C(=O)c2ccc(Cl)c(Cl)c2)cc1/C=C/C(=O)NO`, the IC50 was 5900 nM in test [1] and 21300 nM in test [3] (read-out: IC50). Besides, the pIC50 in test [1] is on record as 5.229. Also, the Ratio IC50 in test [2] came out at 3.6.
As to `Cn1cc(/C=C/C(=O)c2ccc(F)c(Cl)c2)cc1/C=C/C(=O)NO`, the IC50 in test [1] is 500 nM; in test [3] (read-out: IC50) it was 1400 nM; in test [3] (read-out: pIC50 (converted)) it was 621 nM. The molecule further displayed a pIC50 in test [1] of 6.733. For the same molecule, the Ratio IC50 in test [2] stood at 2.8.
Consider `COc1ccccc1C(=O)/C=C/c1cc(/C=C/C(=O)NO)n(C)c1`, for which the results for the IC50 in test [1] and in test [3] (read-out: IC50) were 160 nM and 170 nM, respectively.
Taken in the same sequence, the figures for `Cn1cc(/C=C/C(=O)c2cccc(Br)c2)cc1/C=C/C(=O)NO` were 1600 nM and 480 nM.
With `Cn1cc(/C=C/C(=O)c2ccco2)cc1/C=C/C(=O)NO`, the IC50 was determined as 1200 nM in test [1] and 19700 nM in test [3] (read-out: IC50). Further, the Ratio IC50 in test [2] was 16.4.
Taken in the same sequence, the figures for `Cn1cc(/C=C/C(=O)c2cccs2)cc1/C=C/C(=O)NO` were 16300 nM, 25800 nM and 1.6.
In the case of `Cn1cc(/C=C/C(=O)c2ccc(Br)cc2)cc1/C=C/C(=O)NO`, the results for the IC50 in test [1] and in test [3] (read-out: IC50) were 20300 nM and 24300 nM, respectively. The Ratio IC50 in test [2] amounted to 1.2.
Taken in the same sequence, the figures for `Cc1cccc(C(=O)/C=C/c2cc(/C=C/C(=O)NO)n(C)c2)c1` were 170 nM, 2500 nM and 14.7.
Regarding `Cn1cc(/C=C/C(=O)c2cccc(Cl)c2Cl)cc1/C=C/C(=O)NO`, in test [1], the IC50 worked out at 6800 nM and the pIC50 was found to be 6.243. For the same molecule, in test [2], the Ratio IC50 was found to be 2.5. Further, the IC50 in test [3] (read-out: IC50) worked out at 17200 nM.
Regarding `Cn1cc(/C=C/C(=O)c2cccc(OC(F)(F)F)c2)cc1/C=C/C(=O)NO`, the IC50 in test [1] turned out to be 90000 nM; in test [3] (read-out: IC50), 298000 nM. The pIC50 in test [1] is 4.046. For the same molecule, in test [2], the Ratio IC50 came out at 3.3.
As to `Cn1cc(/C=C/C(=O)c2c(F)cccc2F)cc1/C=C/C(=O)NO`, the IC50 was 167 nM in test [1], 807 nM in test [3] (read-out: IC50) and 17000 nM in test [3] (read-out: pIC50 (converted)). In test [1], this molecule had a pIC50 of 5.553. The Ratio IC50 in test [2] stood at 4.8.
Take `Cn1cc(/C=C/C(=O)c2cccc3ccccc23)cc1/C=C/C(=O)NO`: the IC50 in test [1] stood at 10 nM; in test [3] (read-out: IC50) it was 330 nM. For the same molecule, the Ratio IC50 in test [2] came to 33.
Taken in the same sequence, the figures for `Cc1ccc(C(=O)/C=C/c2cc(/C=C/C(=O)NO)n(C)c2)cc1` were 500 nM, 4800 nM and 9.6.
Taken in the same sequence, the figures for `Cn1cc(/C=C/C(=O)c2ccc3c(c2)CCO3)cc1/C=C/C(=O)NO` were 2100 nM, 6400 nM and 3.
As to `Cn1cc(/C=C/C(=O)c2ccccc2Br)cc1/C=C/C(=O)NO`, the IC50 came to 210 nM in test [1] and 180 nM in test [3] (read-out: IC50).
Consider `Cn1cc(/C=C2\CCc3ccccc3C2=O)cc1/C=C/C(=O)NO`, for which the IC50 in test [1] was 3400 nM; in test [3] (read-out: IC50), 59000 nM; in test [3] (read-out: pIC50 (converted)), 807 nM. This molecule showed a pIC50 in test [1] of 6.777. In test [2], the Ratio IC50 was determined as 17.3.
Take `Cn1cc(/C=C/C(=O)c2ccc(-c3ccccc3)cc2)cc1/C=C/C(=O)NO`: the IC50 in test [1] is 2200 nM; in test [3] (read-out: IC50), 31800 nM. Also, in test [2], the Ratio IC50 turned out to be 14.4.
With `Cn1cc(/C=C/C(=O)c2cc(F)ccc2F)cc1/C=C/C(=O)NO`, the results for the IC50 in test [1], in test [3] (read-out: IC50) and in test [3] (read-out: pIC50 (converted)) were 800 nM, 16600 nM and 800 nM, respectively. Also, in test [1], the pIC50 is on record as 6.097. Further, the Ratio IC50 in test [2] was 20.8.
For the molecule `Cn1cc(/C=C/C(=O)c2cc(F)cc(F)c2)cc1/C=C/C(=O)NO`, the pIC50 in test [1] is 5.678. Also, in test [2], the Ratio IC50 is 11.2. Moreover, the IC50 in test [3] (read-out: IC50) was found to be 23500 nM.
As to `Cn1cc(/C=C/C(=O)c2ccccc2)cc1/C=C/C(=O)NO`, the IC50 in test [1] amounted to 190 nM; in test [3] (read-out: IC50) it was 260 nM.
For `Cn1cc(/C=C/C(=O)c2ccc(Cl)cc2Cl)cc1/C=C/C(=O)NO`, in test [1], the IC50 stood at 2800 nM and the pIC50 came out at 5.523. Besides, the Ratio IC50 in test [2] amounted to 6.1. The IC50 in test [3] (read-out: IC50) is 17000 nM.
Taken in the same sequence, the figures for `Cn1cc(/C=C/C(=O)c2ccc3c(c2)OCCO3)cc1/C=C/C(=O)NO` were 185 nM, 6.708, 3.4 and 621 nM.
As to `Cc1ccccc1C(=O)/C=C/c1cc(/C=C/C(=O)NO)n(C)c1`, the IC50 in test [1] was 60 nM; in test [3] (read-out: IC50), 390 nM. In test [2], the Ratio IC50 stood at 6.5.
In the case of `COc1ccc(C(=O)/C=C/c2cc(/C=C/C(=O)NO)n(C)c2)cc1`, the IC50 came to 790 nM in test [1] and 800 nM in test [3] (read-out: IC50).
Taken in the same sequence, the figures for `Cn1cc(/C=C/C(=O)c2ccc(Cl)cc2)cc1/C=C/C(=O)NO` were 18600 nM and 29400 nM.
As for `Cn1cc(/C=C/C(=O)c2ccc3ccccc3c2)cc1/C=C/C(=O)NO`, the IC50 stood at 40 nM in test [1] and 1800 nM in test [3] (read-out: IC50). For the same molecule, in test [2], the Ratio IC50 turned out to be 45.
Regarding `Cn1cc(/C=C2\CCCc3ccccc3C2=O)cc1/C=C/C(=O)NO`, the IC50 in test [1] is 196 nM; in test [3] (read-out: IC50), 510 nM; in test [3] (read-out: pIC50 (converted)), 1400 nM. The same molecule registered a pIC50 in test [1] of 6.301. For the same molecule, the Ratio IC50 in test [2] turned out to be 2.6.
As for `Cn1cc(/C=C/C(=O)c2cccc(C(F)(F)F)c2)cc1/C=C/C(=O)NO`, in test [1], the IC50 came to 9300 nM and the pIC50 stood at 5.032. Also, the Ratio IC50 in test [2] worked out at 17.1. Also, in test [3] (read-out: IC50), the IC50 turned out to be 159000 nM.
Take `Cn1cc(/C=C/C(=O)c2ccccc2F)cc1/C=C/C(=O)NO`: the IC50 in test [1] came out at 100 nM; in test [3] (read-out: IC50), 3400 nM. Moreover, in test [2], the Ratio IC50 was 34.
For `Cn1cc(/C=C/C(=O)c2ccc(F)c(F)c2)cc1/C=C/C(=O)NO`, in test [1], the IC50 was 2200 nM and the pIC50 was determined as 5.658. Also, in test [2], the Ratio IC50 stood at 6.1. Moreover, the IC50 in test [3] (read-out: IC50) is 13500 nM.
For the molecule `Cn1cc(/C=C/C(=O)c2cc3ccccc3o2)cc1/C=C/C(=O)NO`, the values for the IC50 in test [1], in test [3] (read-out: IC50) and in test [3] (read-out: pIC50 (converted)) were 3000 nM, 12000 nM and 59000 nM, respectively. The same molecule gave a pIC50 in test [1] of 5.469. In addition, the Ratio IC50 in test [2] turned out to be 4.
Turning to `Cn1cc(/C=C/C(=O)c2ccc(F)cc2)cc1/C=C/C(=O)NO`, the IC50 in test [1] came out at 15700 nM; in test [3] (read-out: IC50), 24900 nM. Besides, the Ratio IC50 in test [2] was found to be 1.6.
Taken in the same sequence, the figures for `Cn1cc(/C=C/C(=O)c2ccsc2)cc1/C=C/C(=O)NO` were 13800 nM, 22600 nM and 1.6.
For the molecule `C/C(=C\c1cc(/C=C/C(=O)NO)n(C)c1)C(=O)c1ccccc1`, the IC50 in test [1] turned out to be 780 nM; in test [3] (read-out: IC50), 570 nM.
On to `CC(/C=C/C(=O)NO)=C\[C@@H](C)C(=O)c1ccc(N(C)C)cc1` [TRICHOSTATIN], for which the IC50 in test [1] was 0.8 nM.
With `Cn1cc(/C=C/C(=O)c2cccc(Cl)c2)cc1/C=C/C(=O)NO`, the IC50 came out at 440 nM in test [1] and 31400 nM in test [3] (read-out: IC50). Besides, the Ratio IC50 in test [2] stood at 71.4.
Take `Cn1cc(/C=C/C(=O)c2ccccc2Cl)cc1/C=C/C(=O)NO`: the IC50 in test [1] came out at 50 nM; in test [3] (read-out: IC50), 1600 nM. The Ratio IC50 in test [2] was 32.
